Source: EPA's ToxRefDB 2

Experiments:
rat [1] = conditions: Multigenerational reproductive toxicity study; long evans; Oral; Gavage/Intubation; dose end: 1 generation; group: offspring; systemic / organ weight / vagina / absolute + systemic / organ weight / vagina / relative to body weight
rat [2] = conditions: Combined chronic toxicity/carcinogenicity, wistar, Inhalation, Whole-Body, dose end: 125 week, group: systemic
rat [3] = conditions: Prenatal developmental toxicity study, fischer, Inhalation, Whole-Body, dose end: 15 GD
rat [4] = conditions: Multigenerational reproductive toxicity study; fischer; Inhalation; Whole-Body; dose end: 2 generation; group: parental; systemic / in life observation / body weight / body weight
rat [5] = conditions: Neurotoxicity screening battery; fischer; Inhalation; Whole-Body; dose end: 24 week; group: cannot be grouped; systemic / in life observation / body weight / body weight
mouse [6] = conditions: Carcinogenicity; cd1; Oral; Feed; dose end: 79 week; group: systemic; systemic / hematology / leukocyte (wbc) count differential / leukocyte (wbc) + systemic / hematology / lymphocyte / lymphocyte + systemic / …
dog [7] = conditions: Chronic toxicity; beagle; Oral; Feed; dose end: 12 month; group: systemic; systemic / clinical chemistry / beta globulin / beta globulin + systemic / hematology / erythrocyte (rbc) count differential / erythrocyte (…
rat [8] = conditions: Subchronic oral toxicity in rodents, sprague dawley, Feed, dose end: 90 day, group: systemic
dog [9] = conditions: Subchronic oral toxicity in nonrodent, beagle, Feed, dose end: 90 day, group: systemic
rat [10] = conditions: Prenatal developmental toxicity study, sprague dawley, Oral, Gavage/Intubation, dose end: 15 GD
mouse [11] = conditions: Carcinogenicity, b6c3f1, Oral, Feed, dose end: 24 month
rat [12] = conditions: Prenatal developmental toxicity study; sprague dawley; Oral; Feed; dose end: 15 GD; group: maternal; systemic / in life observation / body weight / body weight gain + systemic / in life observation / food consumption / food consumption
rat [13] = conditions: Sub-acute repeat dose toxicity; fischer; Oral; Feed; dose end: 14 day; group: systemic; systemic / in life observation / body weight / body weight gain + systemic / in life observation / clinical signs / urogenital staining + …
mouse [14] = conditions: Carcinogenicity; b6c3f1; Oral; Feed; dose end: 103 week; group: systemic; systemic / in life observation / body weight / body weight
rat [15] = conditions: Subchronic oral toxicity in rodents, fischer, Feed, dose end: 13 week, group: systemic
rat [16] = conditions: Carcinogenicity; fischer; Oral; Feed; dose end: 103 week; group: systemic; systemic / in life observation / body weight / body weight + systemic / pathology microscopic / eye / cataract + systemic / pathology …
mouse [17] = conditions: Sub-acute repeat dose toxicity; b6c3f1; Oral; Feed; dose end: 14 day; group: systemic; systemic / in life observation / clinical signs / fur (altered appearance) + systemic / in life observation / mortality / mortality
rat [18] = conditions: Prenatal developmental toxicity study; wistar; Oral; Gavage/Intubation; dose end: 18 GD; group: developmental; systemic / organ weight / epididymis / absolute + systemic / organ weight / liver / absolute
rat [19] = conditions: Prenatal developmental toxicity study; wistar; Oral; Gavage/Intubation; dose end: 18 GD; group: developmental; systemic / organ weight / epididymis / absolute + systemic / organ weight / liver / absolute; remark: listed apart in the source
rat [20] = conditions: Subchronic oral toxicity in rodents, other, Feed, dose end: 90 day, group: systemic
dog [21] = conditions: Subchronic oral toxicity in nonrodent, beagle, Capsule, dose end: 90 day, group: systemic
[22] = systemic / in life observation / body weight / body weight
[23] = group: developmental, developmental / developmental malformation / bone / supernumerary
[24] = group: maternal, systemic / in life observation / body weight / body weight gain + systemic / in life observation / food consumption / food consumption
[25] = group: maternal, systemic / in life observation / body weight / body weight gain + systemic / in life observation / food consumption / food consumption + …
[26] = systemic / in life observation / body weight / body weight gain + systemic / organ weight / spleen / relative to body weight + systemic / …
[27] = systemic / in life observation / body weight / body weight gain
[28] = group: developmental, systemic / in life observation / body weight / fetal weight
[29] = group: cholinesterase, cholinesterase / cholinesterase / cholinesterase / brain cholinesterase (che)
[30] = group: cholinesterase, cholinesterase / cholinesterase / cholinesterase / brain cholinesterase (che) + cholinesterase / cholinesterase / cholinesterase / plasma …
[31] = group: systemic, systemic / in life observation / clinical signs / convulsions + systemic / pathology gross / lymph node / enlarged + systemic / pathology …
[32] = systemic / in life observation / body weight / body weight gain + systemic / in life observation / clinical signs / skin discoloration + …
[33] = systemic / in life observation / body weight / body weight gain + systemic / pathology microscopic / kidney / casts + systemic / pathology …
[34] = systemic / clinical chemistry / [other] / [other] + systemic / clinical chemistry / bilirubin / total bilirubin + systemic / clinical …

## [O][Cl+][O-] [Chlorine dioxide]
Rat [1]
  LEL: 10 mg/kg/day
  LOAEL: > 10 mg/kg/day
  NEL: 5 mg/kg/day
  NOAEL: ≥ 10 mg/kg/day

## CC1CO1 (stereo unspecified) [1,2-Propylene oxide]
Rat [2]; [22]
  LEL: 30 ppm
  NEL: < 30 ppm
Rat [2]; systemic / pathology microscopic / nose / [other] + systemic / pathology microscopic / nose / hyperplasia
  LOAEL: 100 ppm
Rat [2]; systemic / pathology microscopic / nose / [other] + systemic / pathology microscopic / nose / hyperplasia + systemic / pathology microscopic…
  NOAEL: 30 ppm
Rat [3]; [23]
  LEL: 500 ppm
  LOAEL: 500 ppm
  NEL: 300 ppm
  NOAEL: 300 ppm
Rat [3]; [24]
  LOAEL: 500 ppm
Rat [3]; [25]
  LEL: 500 ppm
  NEL: 300 ppm
  NOAEL: 300 ppm
Rat [4]
  LEL: 30 ppm
  LOAEL: > 300 ppm
  NEL: < 30 ppm
  NOAEL: ≥ 300 ppm
Rat [5]
  LEL: 100 ppm
  LOAEL: > 300 ppm
  NEL: 30 ppm
  NOAEL: ≥ 300 ppm

## COc1ccc(-c2ccccc2)cc1NNC(=O)OC(C)C [Bifenazate]
Mouse [6]
  LEL: 15.4 mg/kg/day
  LOAEL: 15.4 mg/kg/day
  NEL: 1.5 mg/kg/day
  NOAEL: 1.5 mg/kg/day
Dog [7]
  LEL: 8.95 mg/kg/day
  LOAEL: 8.95 mg/kg/day
  NEL: 1.01 mg/kg/day
  NOAEL: 1.01 mg/kg/day
Rat [8]; systemic / clinical chemistry / protein / protein
  LEL: 13.8 mg/kg/day
Rat [8]; systemic / clinical chemistry / protein / protein + systemic / hematology / erythrocyte (rbc) count differential / erythrocyte (rbc) + …
  NEL: 2.7 mg/kg/day
Rat [8]; [26]
  LOAEL: 16.3 mg/kg/day
  NOAEL: 3.2 mg/kg/day
Dog [9]; systemic / hematology / mean corpuscular (cell) volume (mcv) / mean corpuscular (cell) volume (mcv) + systemic / hematology / mean …
  LOAEL: 10.4 mg/kg/day
Dog [9]; [27]
  LEL: 0.9 mg/kg/day
  NEL: < 0.9 mg/kg/day
Dog [9]; systemic / in life observation / body weight / body weight gain + systemic / hematology / mean corpuscular (cell) volume (mcv) / mean …
  NOAEL: 0.9 mg/kg/day

## COP(=S)(OC)SCN1C(=O)c2ccccc2C1=O [Phosmet]
Rat [10]; [28]
  LEL: 5 mg/kg/day
  LOAEL: > 30 mg/kg/day
  NEL: < 5 mg/kg/day
  NOAEL: ≥ 30 mg/kg/day
Rat [10]; [24]
  LEL: 20 mg/kg/day
Rat [10]; [25]
  LOAEL: > 30 mg/kg/day
  NEL: 10 mg/kg/day
  NOAEL: ≥ 30 mg/kg/day
Mouse [11]; [29]
  LOAEL: 1 mg/kg/day
  NOAEL: < 1 mg/kg/day
Mouse [11]; [30]
  LEL: 1 mg/kg/day
  NEL: < 1 mg/kg/day
Mouse [11]; group: systemic, systemic / in life observation / clinical signs / convulsions
  LOAEL: 4 mg/kg/day
Mouse [11]; [31]
  LEL: 1 mg/kg/day
  NEL: < 1 mg/kg/day
Mouse [11]; group: systemic, systemic / in life observation / clinical signs / convulsions + systemic / pathology microscopic / liver / hepatocellular adenoma + systemic…
  NOAEL: 1 mg/kg/day
Rat [12]
  LEL: 27 mg/kg/day
  LOAEL: > 29 mg/kg/day
  NEL: 22 mg/kg/day
  NOAEL: ≥ 29 mg/kg/day

## CCCOC(=O)c1cc(O)c(O)c(O)c1 [Propyl gallate]
Rat [13]
  LEL: 2500 mg/kg/day
  LOAEL: > 5000 mg/kg/day
  NEL: 1250 mg/kg/day
  NOAEL: ≥ 5000 mg/kg/day
Mouse [14]
  LEL: 900 mg/kg/day
  LOAEL: 900 mg/kg/day
  NEL: < 900 mg/kg/day
  NOAEL: < 900 mg/kg/day
Rat [15]; [27]
  LEL: 625 mg/kg/day
  LOAEL: 625 mg/kg/day
Rat [15]; [32]
  NEL: 300 mg/kg/day
  NOAEL: 300 mg/kg/day
Rat [16]
  LEL: 300 mg/kg/day
  LOAEL: 300 mg/kg/day
  NEL: < 300 mg/kg/day
  NOAEL: < 300 mg/kg/day
Mouse [17]
  LEL: 7500 mg/kg/day
  LOAEL: > 15000 mg/kg/day
  NEL: 3750 mg/kg/day
  NOAEL: ≥ 15000 mg/kg/day

## CCCCCCCCCc1ccc(O)cc1 [4-Nonylphenol]
Rat [18]
  LEL: 15 mg/kg/day
  LOAEL: > 75 mg/kg/day
  NEL: 3 mg/kg/day
  NOAEL: ≥ 75 mg/kg/day
Rat [19]
  LEL: 15 mg/kg/day
  LOAEL: > 75 mg/kg/day
  NEL: 3 mg/kg/day
  NOAEL: ≥ 75 mg/kg/day

## CCc1occc(=O)c1O [2-Ethyl-3-hydroxy-4H-pyran-4-one]
Rat [20]; [27]
  LEL: 500 mg/kg/day
Rat [20]; [33]
  LOAEL: > 1000 mg/kg/day
  NEL: 250 mg/kg/day
  NOAEL: ≥ 1000 mg/kg/day
Dog [21]; [34]
  LOAEL: > 500 mg/kg/day
  NOAEL: ≥ 500 mg/kg/day
Dog [21]; systemic / clinical chemistry / bilirubin / total bilirubin + systemic / hematology / anemia / anemia - hemolytic + systemic / pathology …
  NEL: 125 mg/kg/day
Dog [21]; systemic / pathology microscopic / liver / hemosiderosis
  LEL: 250 mg/kg/day
